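How tested: cells in 96-well plates exposed to compound for 48 hours at five concentrations. The concentration for 50% growth inhibition is given as GI50.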 Activity calls are given as the source filed them. No stated cut-off is given here; in the data, active = GI50 up to about 1.1 µM and inactive = higher. Where a SMILES comes first, the peptide text is derived from it. The star is where a group is joined. Cbz = O=C(OCc1ccccc1)*
Key:
Experiment in all cases: DTP human tumour cell line panel, 48 h
786-0 = tested on: 786-0
ACHN = tested on: ACHN
BT-549 = tested on: BT-549
COLO 205 = tested on: COLO 205
EKVX = tested on: EKVX
HT-29 = tested on: HT-29
IGROV-1 = tested on: IGROV-1
M14 = tested on: M14
MDA-N = tested on: MDA-N
OVCAR-5 = tested on: OVCAR-5
PC-3 = tested on: PC-3
SF-295 = tested on: SF-295
SK-MEL-2 = tested on: SK-MEL-2
SK-MEL-5 = tested on: SK-MEL-5
SK-OV-3 = tested on: SK-OV-3
SNB-19 = tested on: SNB-19
U-251 = tested on: U-251
LOX IMVI = tested on: LOX IMVI
MDA-MB-231 = tested on: MDA-MB-231
T47D = tested on: T47D

Measured: GI50

CCOC(=O)CNC(=O)C(C)NC(=O)C(NC(=O)OCc1ccccc1)C(C)C (stereo not drawn) (Cbz-Val-Ala-Gly-OEt; configuration not given here)
inactive: 786-0 > 100 µM | ACHN > 100 µM | BT-549 58.7 µM | COLO 205 > 100 µM | EKVX > 100 µM | HT-29 > 100 µM | IGROV-1 > 100 µM | M14 > 100 µM | MDA-N > 100 µM | OVCAR-5 > 100 µM | PC-3 > 100 µM | SF-295 > 100 µM | SK-MEL-2 77.8 µM | SK-MEL-5 > 100 µM | SK-OV-3 > 100 µM | SNB-19 > 100 µM | U-251 > 100 µM

COc1ccc(NC(=O)c2cc(NC(=O)/C=C/c3ccccc3)c(OC)c(OC)c2)cc1
inactive: 786-0 11.7 µM | ACHN 4.5 µM | COLO 205 22.5 µM | EKVX 54.2 µM | HT-29 8.41 µM | LOX IMVI 4.73 µM | M14 > 100 µM | MDA-MB-231 9.55 µM | MDA-N 3.1 µM | OVCAR-5 40.7 µM | PC-3 6.41 µM | SF-295 17.4 µM | SK-MEL-2 2.58 µM | SK-MEL-5 5.82 µM | SK-OV-3 51.5 µM | SNB-19 61.1 µM | T47D 8.91 µM | U-251 8.91 µM

O=C(O)Cc1ccc(Oc2nc3ccccc3nc2-c2ccccc2)cc1
inactive: 786-0 > 100 µM | ACHN 51.4 µM | BT-549 37 µM | COLO 205 48.4 µM | EKVX 27.7 µM | HT-29 61.9 µM | IGROV-1 45.9 µM | LOX IMVI 60.3 µM | M14 36.2 µM | MDA-MB-231 58.1 µM | OVCAR-5 > 100 µM | PC-3 56 µM | SF-295 79.4 µM | SK-MEL-2 70 µM | SK-MEL-5 59.6 µM | SK-OV-3 > 100 µM | SNB-19 > 100 µM | T47D > 100 µM | U-251 56.2 µM

Cc1ccc(S(=O)(=O)N2CC3OC(C)(C)OC3C2CO)cc1 (stereo unspecified)
inactive: 786-0 > 100 µM | ACHN > 100 µM | COLO 205 > 100 µM | HT-29 > 100 µM | IGROV-1 > 100 µM | M14 > 100 µM | MDA-MB-231 > 100 µM | MDA-N > 100 µM | OVCAR-5 > 100 µM | PC-3 > 100 µM | SF-295 > 100 µM | SK-MEL-2 > 100 µM | SK-MEL-5 > 100 µM | SK-OV-3 > 100 µM | T47D > 100 µM | U-251 > 100 µM

Nc1ncnc2c1nnn2C1CCC(CP(=O)(O)O)C1 (stereo unspecified)
inactive: 786-0 > 100 µM | ACHN > 100 µM | COLO 205 > 100 µM | EKVX > 100 µM | HT-29 > 100 µM | IGROV-1 > 100 µM | LOX IMVI > 100 µM | M14 > 100 µM | MDA-MB-231 > 100 µM | MDA-N > 100 µM | OVCAR-5 > 100 µM | PC-3 > 100 µM | SF-295 > 100 µM | SK-MEL-2 > 100 µM | SK-MEL-5 > 100 µM | SK-OV-3 > 100 µM | SNB-19 > 100 µM | T47D > 100 µM | U-251 > 100 µM

CN1C(=O)N(c2ccccc2)C2(CCN(CC3COc4ccccc4O3)CC2)C1=O (stereo unspecified)
inactive: 786-0 85.3 µM | ACHN > 100 µM | COLO 205 87.5 µM | EKVX > 100 µM | HT-29 95.1 µM | IGROV-1 > 100 µM | LOX IMVI > 100 µM | M14 > 100 µM | MDA-MB-231 > 100 µM | MDA-N > 100 µM | OVCAR-5 > 100 µM | PC-3 > 100 µM | SF-295 > 100 µM | SK-MEL-2 > 100 µM | SK-MEL-5 71.6 µM | SNB-19 5.71 µM | T47D > 100 µM | U-251 > 100 µM

Nc1nc2ccc(OCC(O)CN3CCCCC3)cc2[n+]([O-])n1 (stereo unspecified)
inactive: 786-0 > 100 µM | ACHN > 100 µM | BT-549 > 100 µM | COLO 205 > 100 µM | HT-29 > 100 µM | M14 > 100 µM | MDA-MB-231 > 100 µM | MDA-N > 100 µM | OVCAR-5 > 100 µM | PC-3 > 100 µM | SF-295 > 100 µM | SK-MEL-2 > 100 µM | SK-MEL-5 > 100 µM | SNB-19 > 100 µM | U-251 > 100 µM

Nc1ccc(S(=O)(=O)Nc2nnc(S(N)(=O)=O)s2)cc1
inactive: 786-0 > 100 µM | ACHN > 100 µM | BT-549 > 100 µM | COLO 205 > 100 µM | EKVX > 100 µM | HT-29 > 100 µM | LOX IMVI > 100 µM | M14 > 100 µM | MDA-MB-231 > 100 µM | OVCAR-5 > 100 µM | SF-295 > 100 µM | SK-OV-3 > 100 µM | SNB-19 > 100 µM | T47D > 100 µM | U-251 > 100 µM

[N-]=[N+]=Nc1cccc(-c2nnc(Cl)cc2O)c1
inactive: 786-0 > 100 µM | ACHN > 100 µM | BT-549 > 100 µM | COLO 205 > 100 µM | EKVX > 100 µM | HT-29 > 100 µM | IGROV-1 > 100 µM | LOX IMVI > 100 µM | M14 > 100 µM | MDA-MB-231 > 100 µM | PC-3 > 100 µM | SF-295 > 100 µM | SK-OV-3 > 100 µM | T47D > 100 µM | U-251 > 100 µM

CC(C)(C)OC(=O)N1C[C@H](CC(=O)OCc2ccccc2)C[C@H]1C(=O)OCC(Cl)(Cl)Cl
inactive: 786-0 5.96 µM | ACHN 5.01 µM | BT-549 8.15 µM | COLO 205 3.18 µM | EKVX 2.78 µM | HT-29 4.7 µM | LOX IMVI 4.97 µM | M14 6.46 µM | MDA-MB-231 11.3 µM | OVCAR-5 20.2 µM | PC-3 2.17 µM | SF-295 2.38 µM | SK-MEL-2 6.7 µM | SK-MEL-5 2.24 µM | SK-OV-3 > 50 µM | SNB-19 7.74 µM | T47D 1.64 µM | U-251 2.56 µM

CC(=O)NC(NCCN)(c1ccccc1)c1ccccc1
inactive: 786-0 > 100 µM | ACHN > 100 µM | COLO 205 > 100 µM | EKVX > 100 µM | HT-29 > 100 µM | LOX IMVI > 100 µM | M14 > 100 µM | MDA-MB-231 > 100 µM | OVCAR-5 67.9 µM | SF-295 > 100 µM | SK-MEL-5 > 100 µM | SK-OV-3 > 100 µM | SNB-19 > 100 µM | U-251 > 100 µM

O=C1CCN2CCC(=O)c3c2c(cc2ccccc32)N1
inactive: 786-0 > 100 µM | ACHN > 100 µM | COLO 205 > 100 µM | EKVX > 100 µM | HT-29 > 100 µM | IGROV-1 > 100 µM | LOX IMVI > 100 µM | M14 > 100 µM | OVCAR-5 > 100 µM | SF-295 > 100 µM | SK-MEL-2 > 100 µM | SK-MEL-5 > 100 µM | SK-OV-3 > 100 µM | SNB-19 > 100 µM | U-251 > 100 µM

CCOC(=O)C(=CNc1ccc(F)c(F)c1)C(=O)OCC
inactive: 786-0 > 100 µM | ACHN > 100 µM | COLO 205 > 100 µM | EKVX 81.5 µM | HT-29 94 µM | IGROV-1 > 100 µM | LOX IMVI > 100 µM | M14 > 100 µM | MDA-MB-231 > 100 µM | MDA-N 93.1 µM | OVCAR-5 > 100 µM | PC-3 67.6 µM | SK-MEL-2 > 100 µM | SK-MEL-5 > 100 µM | SK-OV-3 > 100 µM | SNB-19 > 100 µM | T47D 69.7 µM | U-251 > 100 µM

CCCCc1ccc(-n2c(C)c(COC(=O)NC)c(COC(=O)NC)c2C)cc1
inactive: 786-0 4.08 µM | ACHN 2.11 µM | COLO 205 7.21 µM | EKVX 13 µM | HT-29 11.1 µM | LOX IMVI 4.65 µM | M14 6.12 µM | MDA-MB-231 4.9 µM | MDA-N 13.2 µM | OVCAR-5 4.78 µM | PC-3 10.9 µM | SF-295 8.61 µM | SK-MEL-5 11.4 µM | SK-OV-3 3.76 µM | SNB-19 13.9 µM | T47D 5.66 µM | U-251 4.92 µM

N/N=C(/C(=O)Nc1cccc(Cl)c1)C(C(=O)c1ccc(O)cc1O)C1OC(=O)c2ccccc21 (stereo unspecified)
inactive: 786-0 > 100 µM | ACHN > 100 µM | COLO 205 > 100 µM | EKVX > 100 µM | HT-29 > 100 µM | IGROV-1 > 100 µM | LOX IMVI 87.7 µM | M14 > 100 µM | OVCAR-5 > 100 µM | SF-295 85.9 µM | SK-MEL-2 > 100 µM | SK-MEL-5 > 100 µM | SK-OV-3 > 100 µM | SNB-19 68.2 µM | U-251 46.9 µM

CSc1nncc(-c2cc3c(c(SC)n2)CCC3)n1
inactive: 786-0 79.6 µM | ACHN 53.6 µM | BT-549 > 100 µM | COLO 205 > 100 µM | EKVX > 100 µM | HT-29 > 100 µM | IGROV-1 2.4 µM | M14 > 100 µM | MDA-MB-231 18.9 µM | OVCAR-5 > 100 µM | PC-3 > 100 µM | SF-295 > 100 µM | SK-MEL-2 > 100 µM | SK-MEL-5 > 100 µM | SK-OV-3 > 100 µM | SNB-19 > 100 µM | U-251 25.9 µM

Reference: ChEMBL document CHEMBL1201862, “PubChem BioAssay data set” (2004)
